Series [1] relates to K562. Put plainly: Antiproliferative activity against human K562 cells incubated for 72 hrs by MTT assay. The following applies: K562, 72 h. The format is functional, cell-based. (In general: Tetrazolium assays rely on reduction of a dye to a coloured formazan, in cell work by metabolically active cells.)
In series [2] the test system is K562. Put plainly: Antiproliferative activity against human K562 cells assessed as cell inhibition rate at 0.01 uM incubated for 72 hrs by MTT assay relative to control. Format: functional.
Series [3] relates to K562. Put plainly: Antiproliferative activity against human K562 cells assessed as cell inhibition rate at 0.1 uM incubated for 72 hrs by MTT assay relative to control. The format is functional.
The test system of series [4] is K562. The series can be described thus: Antiproliferative activity against human K562 cells assessed as cell inhibition rate at 1 uM incubated for 72 hrs by MTT assay relative to control. Format: functional.
The subject of another series is A549. Put plainly: cells. The settings on record: Homo sapiens, A549, 72 h.
Series [5] can be described thus: Antiproliferative activity against human HFL1 cells incubated for 72 hrs by MTT assay. The format is toxicity, cell-based.
Another series deals with MCF7. Put plainly: cells. The following applies: Homo sapiens, MCF7, 72 h.
For a further series, the system named is B16-F10. Put plainly: Antiproliferative activity against mouse B16-F10 cells incubated for 72 hrs by MTT assay. Format: functional, cell-based. The following applies: B16-F10, 72 h.
The subject of a further series is A2780. The series can be described thus: cells. The following applies: Homo sapiens, A2780, 72 h.
The subject of another series is MDA-MB-231. The series can be described thus: cells. The following applies: Homo sapiens, MDA-MB-231, 72 h.

The structures appear in SMILES notation.

Description for A2780: Antiproliferative activity against human A2780 cells incubated for 72 hrs by MTT assay
Description for A549: Antiproliferative activity against human A549 cells incubated for 72 hrs by MTT assay
Description for MCF7: Antiproliferative activity against human MCF7 cells incubated for 72 hrs by MTT assay
Description for MDA-MB-231: Antiproliferative activity against human MDA-MB-231 cells incubated for 72 hrs by MTT assay

`C=C(c1ccnc(C)c1)c1ccc(OC)c(OCC(=O)NO)c1`: the IC50 (as a rule, the concentration that inhibits the measured activity by half) in the series with K562 [1] turned out to be 107 nM.

`C=C(c1ccc2[nH]ccc2c1)c1cc(COCC(=O)NO)nc2ccccc12`: the inhibition (usually the relative decrease from the control value, in per cent) at 0.01 µM in the series on K562 [2] came to 2.28%. For the same compound, the inhibition at 0.1 µM in the series on K562 [3] was 6.23%. Besides, the inhibition at 1 µM with K562 [4] was 15%.

`C=C(c1ccc(OC)c(OC(C)C(=O)NO)c1)c1ccnc2ccccc12` (stereo not drawn) had an IC50 in the series with K562 [1] of 69 nM.

As for `C=C(c1cc(C)nc(C)c1)c1ccc(OC)c(OC(C)C(=O)NO)c1` (stereo not drawn), the IC50 with A549 is 80 nM; in the series on MCF7 it was 19 nM; in the series on B16-F10, 72 nM; in the series with A2780, 23 nM; in the series with K562 [1] it was 19 nM; in the series with MDA-MB-231, 99 nM. In addition, half-maximal inhibition in series [5] (IC50 at 72 h) was put at 213 nM.

For the compound `C=C(c1ccc(OC)cc1)c1cc(/C=C/C(=O)NO)nc2ccccc12`, the inhibition at 0.01 µM with K562 [2] came to 1.41%. Also, the inhibition at 0.1 µM in the series with K562 [3] was found to be 6.82%. The inhibition at 1 µM in the series with K562 [4] stood at 43.5%.

As to `C=C(c1ccnc(C)c1)c1ccc(OC)c(OCCCCCC(=O)NO)c1`, the IC50 with K562 [1] came out at 2880 nM.

For `C=C(c1ccc(OC)c(OCC(=O)NO)c1)c1ccnc2ccccc12`, the IC50 in the series with K562 [1] came out at 79 nM.

In the case of `C=C(c1ccc(OC)cc1)c1cc(COCC(=O)NO)nc2ccccc12`, in the series on K562 [2], the inhibition at 0.01 µM worked out at 2.6%. Moreover, in the series with K562 [3], the inhibition at 0.1 µM was found to be 3%. Further, the inhibition at 1 µM in the series with K562 [4] worked out at 40%.

`C=C(c1cccc(OC(C)(C)C(=O)NO)c1)c1cc(C)nc2ccccc12`: the IC50 in the series on K562 [1] stood at 6860 nM.

The compound `C=C(c1ccnc(C)c1)c1ccc(OC)c(OC(C)C(=O)NO)c1` (stereo not drawn) returned a 50% inhibitory concentration (IC50) with K562 [1] of 60 nM.

On to `C=C(c1ccc2[nH]ccc2c1)c1cc(/C=C/C(=O)NO)nc2ccccc12`, for which the inhibition at 0.01 µM with K562 [2] is 3.16%. Besides, the inhibition at 0.1 µM with K562 [3] came out at 3.73%. In the series with K562 [4], the inhibition at 1 µM turned out to be 4.78%.

As to `C=C(c1ccc(OC)c(OCCCCCC(=O)NO)c1)c1ccnc2ccccc12`, in the series on K562 [1], the IC50 was 3340 nM.

Compound `C=C(c1ccc(OC)c(OCCCCCC(=O)NO)c1)c1cc(C)nc2ccccc12` registered an IC50 in the series on K562 [1] of 2260 nM.

With `C=C(c1ccc(OC)c(O)c1)c1cc(C(=O)Nc2ccccc2N)nc2ccccc12`, in the series with K562 [2], the inhibition at 0.01 µM came to 0.16%. Besides, the inhibition at 0.1 µM with K562 [3] came to 3.71%. Moreover, the inhibition at 1 µM in the series on K562 [4] amounted to 4.26%.

Turning to `C=C(c1ccc(OC)c(/C=C/C(=O)NO)c1)c1cc(C)nc2ccccc12`, the IC50 in the series with A549 was determined as 9 nM; in the series on MCF7 it was 17 nM; in the series on B16-F10, 15 nM; in the series with A2780, 5 nM; with K562 [1], 42 nM; in the series on MDA-MB-231 it was 11 nM. For the same compound, the concentration for half-maximal inhibition (IC50) at 72 h in series [5] is 311 nM.

Turning to `C=C(c1cccc(OC(C)C(=O)NO)c1)c1cc(C)nc2ccccc12` (stereo not drawn), 2370 nM corresponded to half-maximal inhibition in the series on K562 [1] (IC50).

Regarding `C=C(c1ccnc(OC)c1)c1ccc(OC)c(OCCCCCC(=O)NO)c1`, the IC50 in the series on K562 [1] is 3860 nM.

Turning to `C=C(c1ccc(OC)c(OCC(=O)NO)c1)c1cc(C)nc2ccccc12`, the concentration for half-maximal inhibition (IC50) is 38 nM in the series with A549; 55 nM with MCF7; 28 nM in the series with B16-F10; 16 nM in the series on A2780; 8 nM with K562 [1]; 32 nM in the series with MDA-MB-231. It took 195 nM to reach half-maximal inhibition in series [5] (IC50 at 72 h).

As to `COc1ccc(/C=C\c2cc(OC)c(OC)c(OC)c2)cc1O` [COMBRETASTATIN A4], in the series with K562 [2], the inhibition at 0.01 µM stood at 86.6%. Also, the IC50 in the series on A549 came out at 2 nM; in the series with MCF7, 71 nM; with B16-F10, 7 nM; in the series on K562 [1], 7 nM; in the series with MDA-MB-231 it was 29 nM. The IC50 at 72 h in [5] was determined as 82 nM. In the series on K562 [3], the inhibition at 0.1 µM is 88.4%. In addition, the inhibition at 1 µM in the series with K562 [4] came out at 95%.

For the compound `C=C(c1ccc(OC)c(C(=O)Nc2ccccc2N)c1)c1cc(C)nc2ccccc12`, the IC50 in the series with K562 [1] is 22200 nM.

In the series on K562 [1], `C=C(c1ccc(OC)c(OCCCC(=O)NO)c1)c1ccnc2ccccc12` showed a 50% inhibitory concentration (IC50) of 1460 nM.

`C=C(c1ccc(OC)c(OC(F)(F)C(=O)NO)c1)c1cc(C)nc2ccccc12` registered an IC50 in the series with K562 [1] of 204 nM.

In the case of `C=C(c1ccnc(OC)c1)c1ccc(OC)c(OC(C)C(=O)NO)c1` (stereo not drawn), the IC50 in the series on K562 [1] was determined as 61 nM.

For `C=C(c1ccnc(OC)c1)c1ccc(OC)c(OCCCC(=O)NO)c1`, the IC50 in the series on K562 [1] was found to be 1140 nM.

`C=C(c1cccc(OCCCCCC(=O)NO)c1)c1cc(C)nc2ccccc12` gave a half-inhibitory concentration (IC50) in the series with K562 [1] of 9270 nM.

With `C=C(c1cc(C)nc(C)c1)c1ccc(OC)c(OCCCC(=O)NO)c1`, the IC50 in the series with K562 [1] turned out to be 516 nM.

Compound `C=C(c1cccc(OC/C=C/C(=O)NO)c1)c1cc(C)nc2ccccc12` returned an IC50 in the series on K562 [1] of 2740 nM.

Compound `C=C(c1ccnc(C)c1)c1ccc(OC)c(OCCCC(=O)NO)c1` registered an IC50 in the series on K562 [1] of 1490 nM.

On to `C=C(c1ccc(OC)c(OCCCCC(=O)NO)c1)c1cc(C)nc2ccccc12`, for which half-maximal inhibition with K562 [1] (IC50) required 1840 nM.

`C=C(c1cccc(OCC(=O)NO)c1)c1cc(C)nc2ccccc12`: in the series on K562 [1], 2480 nM corresponded to half-maximal inhibition (IC50).

In the series on K562 [1], `C=C(c1cccc(OCCCC(=O)NO)c1)c1cc(C)nc2ccccc12` displayed an IC50 of 3000 nM.

For `C=C(c1ccc(OC)cc1)c1cc(C(=O)Nc2ccccc2N)nc2ccccc12`, the inhibition at 0.01 µM in the series on K562 [2] was -0.16%. For the same compound, the inhibition at 0.1 µM in the series on K562 [3] is 0.24%. For the same compound, the inhibition at 1 µM in the series with K562 [4] amounted to 1.1%.

For the compound `C=C(c1ccc(OC)c(O)c1)c1cc(COCC(=O)NO)nc2ccccc12`, the inhibition at 0.01 µM in the series with K562 [2] came to 0.83%. The inhibition at 0.1 µM in the series with K562 [3] is 6.41%. For the same compound, the inhibition at 1 µM in the series on K562 [4] is 71.5%.

`C=C(c1ccc(OC)c(OCCC(=O)NO)c1)c1cc(C)nc2ccccc12` gave a half-inhibitory concentration (IC50) with K562 [1] of 61 nM.

In the series on K562 [1], `C=C(c1ccc(OC)c(C(=O)NO)c1)c1cc(C)nc2ccccc12` had a 50% inhibitory concentration (IC50) of 1320 nM.

For `C=C(c1ccc2[nH]ccc2c1)c1cc(C(=O)Nc2ccccc2N)nc2ccccc12`, in the series with K562 [2], the inhibition at 0.01 µM was -0.17%. Moreover, the inhibition at 0.1 µM with K562 [3] came out at 2.75%. Also, the inhibition at 1 µM in the series on K562 [4] was 2.75%.

In the series with K562 [1], `C=C(c1cc(C)nc(C)c1)c1ccc(OC)c(OCCCCCC(=O)NO)c1` showed an IC50 of 1920 nM.

`C=C(c1ccc(OC)c(O)c1)c1cc(/C=C/C(=O)NO)nc2ccccc12`: the inhibition at 0.01 µM in the series with K562 [2] is -0.17%. Also, the inhibition at 0.1 µM with K562 [3] worked out at 12.9%. For the same compound, in the series on K562 [4], the inhibition at 1 µM turned out to be 87.3%.

Take `C=C(c1ccc(OC)c(OCCCC(=O)NO)c1)c1cc(C)nc2ccccc12`: in the series on K562 [1], the IC50 was determined as 173 nM.

On to `C=C(c1ccc(OC)c(OC(C)(C)C(=O)NO)c1)c1cc(C)nc2ccccc12`, for which the half-maximal inhibitory concentration (IC50) in the series on A549 came to 9 nM; in the series on MCF7, 44 nM; with B16-F10 it was 4 nM; in the series with A2780, 8 nM; in the series with K562 [1] it was 5 nM; in the series on MDA-MB-231, 31 nM. The half-maximal inhibitory concentration (IC50) at 72 h in series [5] turned out to be 103 nM.

Regarding `C=C(c1ccnc(OC)c1)c1ccc(OC)c(OCC(=O)NO)c1`, in the series on K562 [1], half-maximal inhibition (IC50) was put at 55 nM.

Consider `C=C(c1cc(C)nc(C)c1)c1ccc(OC)c(OCC(=O)NO)c1`, for which the 50% inhibitory concentration (IC50) stood at 69 nM with A549; 52 nM in the series on MCF7; 98 nM with B16-F10; 36 nM in the series with A2780; 26 nM with K562 [1]; 111 nM with MDA-MB-231. Moreover, in series [5], the half-maximal inhibitory concentration (IC50) at 72 h was 264 nM.

The record behind these values is ChEMBL document CHEMBL5620374, “Synthesis and bioevaluation of novel stilbene-based derivatives as tubulin/HDAC dual-target inhibitors with potent antitumor activities in vitro and in vivo” (Eur J Med Chem, 2023).
